Measurements as given in ChEMBL document CHEMBL1201862, “PubChem BioAssay data set” (2004).
The source made the active and inactive calls.

Key:
[1] = target: Induced myeloid leukemia cell differentiation protein Mcl-1 (Homo sapiens, UniProt Q07820); experiment: blockers of MCL1 binding to BIM peptide – biochemical, fluorescence polarization, BIM-BH3 peptide, 1536-well, dose response (AID 2217)
[2] = target: Bcl-2-like protein 1 (Homo sapiens, UniProt Q07817); experiment: blockers of BCLXL peptide binding – biochemical, fluorescence polarization, 1536-well, selectivity assay for MCL1 inhibitor project, dose response (AID 2218)
[3] = target: Protein Tat (Human immunodeficiency virus type 1 group M subtype B (isolate HXB2)(HIV-1), UniProt P04608); assay type: functional;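 further: tat binding to TAR RNA read out by fluorescence polarization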
[4] = viability loss in THP-1 monocytes – THP-1 cells, cytotoxicity control for Vif-APOBEC3G degradation inhibitor project, dose response (AID 1117359); assay type: functional; conditions: THP-1
[5] = HIV-1 Vif–A3G interaction blockers – biochemical, TR-FRET, GST-Vif 1-94, biotin-A3G peptide, dose response retest, primary screen (AID 1117319); assay type: functional;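 further: TR-FRET signal of purified GST-Vif binding a biotinylated A3G peptide; inhibitors lower the FRET signal by blocking Vif and A3G binding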
[6] = target: Peroxisome proliferator-activated receptor gamma/Nuclear receptor coactivator 2 (Homo sapiens, UniProt P37231); assay type: functional;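 further: agonist potency for raising coactivator recruitment to the receptor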
[7] = target: Peroxisome proliferator-activated receptor gamma/Nuclear receptor coactivator 1 (Homo sapiens, UniProt P37231); assay type: functional;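 further: agonist potency as compounds enhance coactivator SRC-1 recruitment to PPARgamma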
[8] = target: Peroxisome proliferator-activated receptor gamma/Nuclear receptor coactivator 3 (Homo sapiens, UniProt P37231); assay type: functional;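 further: agonist potency for raising coactivator recruitment to the receptor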
[9] = target: Mitogen-activated protein kinase 10 (Homo sapiens, UniProt P53779); experiment: Dose response biochemical screening assay for inhibitors of c-Jun N-Terminal Kinase 3 (JNK3). [Related pubchem assays: 746 ]
[10] = target: T1, Calpain-2 catalytic subunit (Sus scrofa, UniProt P43367); experiment: m-calpain protease blockers, concentration series – biochemical, fluorogenic peptide substrate, dose response (AID 1420); assay type: functional
T1 sequence (P43367 whole entry): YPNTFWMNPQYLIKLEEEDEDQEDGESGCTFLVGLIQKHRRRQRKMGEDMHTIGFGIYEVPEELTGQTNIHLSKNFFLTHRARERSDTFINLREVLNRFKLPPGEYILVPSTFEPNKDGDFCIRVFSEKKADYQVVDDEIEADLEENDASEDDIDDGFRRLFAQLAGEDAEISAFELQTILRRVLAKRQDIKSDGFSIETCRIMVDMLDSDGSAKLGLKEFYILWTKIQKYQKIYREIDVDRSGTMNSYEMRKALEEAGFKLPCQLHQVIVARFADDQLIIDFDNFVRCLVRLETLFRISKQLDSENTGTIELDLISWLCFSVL

[11] = target: Transthyretin (Homo sapiens, UniProt P02766); experiment: Luminescence-based cell-based high throughput dose response assay to identify activators of Transthyretin (TTR) transcription.; assay type: functional
[12] = target: Heat shock protein HSP 90-alpha (Homo sapiens, UniProt P07900); experiment: Luminescence-based dose response biochemical high throughput screening assay for inhibitors of the Heat Shock Protein 90 (HSP90). [Related pubchem assays: 1831 (Summary AID.), 1846 (Confirmation screen.), 1789 (Primary screen.)]
[13] = target: Sphingosine 1-phosphate receptor 2 (Homo sapiens, UniProt O95136); experiment: Dose Response Cell Based Assay for Agonists of the S1P2 Receptor. [Related pubchem assays: 729, 736, 843 ]; assay type: functional
Sphingosine 1-phosphate receptor 2, sequence (O95136 whole entry): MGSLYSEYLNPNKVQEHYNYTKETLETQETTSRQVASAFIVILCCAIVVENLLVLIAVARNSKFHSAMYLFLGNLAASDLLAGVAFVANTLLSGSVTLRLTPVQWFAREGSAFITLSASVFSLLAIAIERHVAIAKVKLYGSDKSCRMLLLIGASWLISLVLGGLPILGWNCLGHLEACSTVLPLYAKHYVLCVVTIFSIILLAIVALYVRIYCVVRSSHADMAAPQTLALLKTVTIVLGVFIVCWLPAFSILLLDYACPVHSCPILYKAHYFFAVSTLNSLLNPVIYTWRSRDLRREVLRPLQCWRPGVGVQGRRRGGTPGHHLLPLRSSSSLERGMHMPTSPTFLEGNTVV

Induced myeloid leukemia cell differentiation protein Mcl-1, sequence (Q07820 whole entry): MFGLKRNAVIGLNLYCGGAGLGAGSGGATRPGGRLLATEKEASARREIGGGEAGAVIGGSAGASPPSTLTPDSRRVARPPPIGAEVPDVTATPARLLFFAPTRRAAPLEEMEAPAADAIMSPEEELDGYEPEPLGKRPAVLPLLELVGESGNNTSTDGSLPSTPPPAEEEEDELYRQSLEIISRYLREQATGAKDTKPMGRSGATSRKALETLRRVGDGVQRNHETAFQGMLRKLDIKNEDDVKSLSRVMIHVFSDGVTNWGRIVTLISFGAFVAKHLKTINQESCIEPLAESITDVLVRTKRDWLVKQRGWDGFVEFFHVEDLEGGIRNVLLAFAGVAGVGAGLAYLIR
Bcl-2-like protein 1, sequence (Q07817 whole entry): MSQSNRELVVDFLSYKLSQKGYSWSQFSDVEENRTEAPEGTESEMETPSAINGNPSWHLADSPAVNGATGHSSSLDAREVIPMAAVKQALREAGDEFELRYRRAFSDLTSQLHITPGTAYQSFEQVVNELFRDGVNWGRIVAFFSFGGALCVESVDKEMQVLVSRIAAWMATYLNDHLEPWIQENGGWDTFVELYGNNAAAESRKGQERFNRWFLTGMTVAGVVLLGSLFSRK
Protein Tat, sequence (P04608 whole entry): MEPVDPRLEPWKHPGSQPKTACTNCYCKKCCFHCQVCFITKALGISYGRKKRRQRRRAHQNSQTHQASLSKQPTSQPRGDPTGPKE
Peroxisome proliferator-activated receptor gamma/Nuclear receptor coactivator 1, sequence (P37231 whole entry): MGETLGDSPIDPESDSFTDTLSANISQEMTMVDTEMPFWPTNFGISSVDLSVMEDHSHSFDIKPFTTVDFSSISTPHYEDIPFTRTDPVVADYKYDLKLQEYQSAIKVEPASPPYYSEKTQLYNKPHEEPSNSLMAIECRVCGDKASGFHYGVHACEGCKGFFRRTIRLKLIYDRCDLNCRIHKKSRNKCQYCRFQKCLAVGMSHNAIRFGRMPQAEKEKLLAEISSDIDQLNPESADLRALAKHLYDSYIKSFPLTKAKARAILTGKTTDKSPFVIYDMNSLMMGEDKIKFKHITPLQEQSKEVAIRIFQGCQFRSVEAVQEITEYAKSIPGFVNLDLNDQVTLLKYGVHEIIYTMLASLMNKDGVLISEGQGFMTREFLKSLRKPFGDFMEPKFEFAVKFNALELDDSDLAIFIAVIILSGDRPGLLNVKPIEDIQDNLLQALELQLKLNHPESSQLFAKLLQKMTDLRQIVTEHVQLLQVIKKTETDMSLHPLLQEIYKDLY
Peroxisome proliferator-activated receptor gamma/Nuclear receptor coactivator 1, sequence (Q15788 whole entry, further chain): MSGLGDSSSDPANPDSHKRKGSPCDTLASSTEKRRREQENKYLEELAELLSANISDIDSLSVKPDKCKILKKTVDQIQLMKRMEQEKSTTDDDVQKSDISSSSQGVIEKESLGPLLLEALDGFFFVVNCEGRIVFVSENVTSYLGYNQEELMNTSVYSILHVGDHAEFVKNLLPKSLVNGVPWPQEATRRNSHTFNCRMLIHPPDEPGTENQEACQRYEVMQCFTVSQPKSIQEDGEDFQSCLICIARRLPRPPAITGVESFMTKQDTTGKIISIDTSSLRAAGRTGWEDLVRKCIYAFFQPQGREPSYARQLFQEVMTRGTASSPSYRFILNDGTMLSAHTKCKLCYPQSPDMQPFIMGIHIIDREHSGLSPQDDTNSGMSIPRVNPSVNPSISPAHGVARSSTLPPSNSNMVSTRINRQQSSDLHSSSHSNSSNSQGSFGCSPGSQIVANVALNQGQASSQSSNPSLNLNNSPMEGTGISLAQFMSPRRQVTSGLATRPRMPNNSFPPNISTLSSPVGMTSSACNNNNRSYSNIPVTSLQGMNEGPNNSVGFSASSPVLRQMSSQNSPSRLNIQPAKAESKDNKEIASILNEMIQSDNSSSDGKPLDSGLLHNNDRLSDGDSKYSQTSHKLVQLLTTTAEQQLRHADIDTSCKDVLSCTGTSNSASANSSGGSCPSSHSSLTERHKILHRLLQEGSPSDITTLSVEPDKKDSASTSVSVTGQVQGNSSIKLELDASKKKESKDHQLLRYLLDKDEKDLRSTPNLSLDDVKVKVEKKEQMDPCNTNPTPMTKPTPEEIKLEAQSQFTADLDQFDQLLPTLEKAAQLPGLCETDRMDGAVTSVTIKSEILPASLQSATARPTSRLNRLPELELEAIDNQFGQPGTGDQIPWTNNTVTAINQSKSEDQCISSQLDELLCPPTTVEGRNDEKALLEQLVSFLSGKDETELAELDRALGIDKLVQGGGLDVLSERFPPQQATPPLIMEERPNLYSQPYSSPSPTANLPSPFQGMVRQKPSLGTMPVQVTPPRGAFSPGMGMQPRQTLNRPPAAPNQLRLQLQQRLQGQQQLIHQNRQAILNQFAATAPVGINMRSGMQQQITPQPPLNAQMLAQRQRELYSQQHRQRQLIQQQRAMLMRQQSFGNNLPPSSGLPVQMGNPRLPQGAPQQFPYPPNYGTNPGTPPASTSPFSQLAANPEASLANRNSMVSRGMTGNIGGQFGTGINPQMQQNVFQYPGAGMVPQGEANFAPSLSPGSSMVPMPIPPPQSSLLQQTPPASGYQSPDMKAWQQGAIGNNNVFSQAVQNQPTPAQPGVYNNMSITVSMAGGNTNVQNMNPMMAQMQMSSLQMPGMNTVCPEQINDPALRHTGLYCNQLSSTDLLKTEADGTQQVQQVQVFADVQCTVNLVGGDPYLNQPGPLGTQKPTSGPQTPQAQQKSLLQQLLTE
Peroxisome proliferator-activated receptor gamma/Nuclear receptor coactivator 3, sequence (P37231 whole entry): as the sequence (P37231 whole entry) above
Peroxisome proliferator-activated receptor gamma/Nuclear receptor coactivator 3, sequence (Q9Y6Q9 whole entry, further chain): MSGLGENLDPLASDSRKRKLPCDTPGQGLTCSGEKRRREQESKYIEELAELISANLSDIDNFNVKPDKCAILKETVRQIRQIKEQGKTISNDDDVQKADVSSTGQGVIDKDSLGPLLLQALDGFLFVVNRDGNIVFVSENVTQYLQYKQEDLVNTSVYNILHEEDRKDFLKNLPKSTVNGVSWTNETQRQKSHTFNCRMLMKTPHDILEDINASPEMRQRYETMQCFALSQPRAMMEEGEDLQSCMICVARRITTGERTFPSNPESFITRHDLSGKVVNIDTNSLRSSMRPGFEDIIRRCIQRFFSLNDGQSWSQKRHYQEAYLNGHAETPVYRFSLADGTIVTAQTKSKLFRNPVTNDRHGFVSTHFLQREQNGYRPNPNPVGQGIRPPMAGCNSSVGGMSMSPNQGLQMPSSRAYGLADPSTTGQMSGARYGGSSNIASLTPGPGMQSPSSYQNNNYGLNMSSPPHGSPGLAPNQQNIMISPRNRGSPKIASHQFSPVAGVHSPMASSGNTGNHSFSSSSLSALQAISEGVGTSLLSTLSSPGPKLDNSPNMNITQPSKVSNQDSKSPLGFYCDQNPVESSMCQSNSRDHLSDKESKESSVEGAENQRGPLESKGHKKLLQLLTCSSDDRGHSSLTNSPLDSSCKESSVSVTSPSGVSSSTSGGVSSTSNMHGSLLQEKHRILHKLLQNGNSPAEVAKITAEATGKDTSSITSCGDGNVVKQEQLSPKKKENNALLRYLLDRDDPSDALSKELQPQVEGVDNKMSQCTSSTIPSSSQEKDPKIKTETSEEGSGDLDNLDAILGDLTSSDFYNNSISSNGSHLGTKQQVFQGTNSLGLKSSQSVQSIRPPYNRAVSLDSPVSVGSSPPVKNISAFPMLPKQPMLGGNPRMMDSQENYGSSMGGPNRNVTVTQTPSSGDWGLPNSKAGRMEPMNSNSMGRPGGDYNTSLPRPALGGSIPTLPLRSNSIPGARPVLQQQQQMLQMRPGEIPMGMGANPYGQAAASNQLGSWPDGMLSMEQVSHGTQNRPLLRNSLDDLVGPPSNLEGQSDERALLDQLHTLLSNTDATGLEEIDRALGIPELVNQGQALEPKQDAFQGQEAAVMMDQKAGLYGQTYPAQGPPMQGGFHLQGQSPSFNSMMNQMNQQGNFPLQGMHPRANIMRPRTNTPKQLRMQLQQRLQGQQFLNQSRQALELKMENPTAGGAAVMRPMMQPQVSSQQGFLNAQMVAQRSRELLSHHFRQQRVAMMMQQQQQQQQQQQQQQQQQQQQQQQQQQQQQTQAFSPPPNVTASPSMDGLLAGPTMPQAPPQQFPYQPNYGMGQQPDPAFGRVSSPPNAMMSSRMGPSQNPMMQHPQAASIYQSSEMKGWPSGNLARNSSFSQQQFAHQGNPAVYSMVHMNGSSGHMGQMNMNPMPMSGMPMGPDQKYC

SMILES: O=C(c1cc(-c2ccco2)nn1-c1cccc(Cl)c1)N1CCCCC1
- IC50 [1]: > 109 µM (not active)
- IC50 [2]: > 109 µM (not active)
- IC50 [3]: > 100 µM (inconclusive)
- CC50 [4]: > 40 µM (active)
- IC50 [5]: > 60.7 µM (active)

SMILES: Cn1c(C(=O)NCc2ccco2)cc2c(=O)[nH]c3ccccc3c21
- EC50 [6]: > 79.4 µM (not active)
- EC50 [7]: > 79.4 µM (not active)
- EC50 [8]: > 79.4 µM (not active)
- IC50 [9]: 31.4 µM (not active)

SMILES: c1cc2c(cc1C1=Nn3c(nnc3C3CCCCC3)SC1)OCO2
- IC50 [10]: 10.9 µM (not active)
- EC50 [11]: > 167 µM (inactive)

SMILES: O=[N+]([O-])c1ccc(S(=O)(=O)N2CCN=C2SCc2ccc(F)cc2)cc1
- IC50 [12]: 4.79 µM (active)

SMILES: Cc1cccc(C(=O)NC2CC3CCCC(C2)N3C(=O)NC2CCCCC2)c1 (stereo not drawn)
- EC50 [13]: > 50 µM (not active)
